US12077503B2, “Substituted cyclic amides and their use as herbicides” (FMC CORPORATION, priority 2015, dated 2024)

Legend:
Assay type in all cases: in vivo
Kochia (Kochia scoparia) [1] = experiment: Test A preemergence
How it was run: (§1)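 Visual injury, scored on a 0–100 scale relative to untreated controls, was recorded about 10 d after application. Treatments were a preemergence soil spray over planted seeds or a postemergence spray on plants at the one- to two-leaf stage, 2 to 10 cm tall, all in loam soil–sand blend in the greenhouse.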

[2] = system: barnyardgrass (Echinochloa crus-galli); experiment: Test A preemergence
How it was run: as §1

[3] = system: giant foxtail (Setaria faberii); experiment: Test A preemergence
How it was run: as §1

[4] = system: pigweed (Amaranthus retroflexus); experiment: Test A preemergence
[5] = system: ragweed (common ragweed, Ambrosia elatior); experiment: Test A preemergence
How it was run: as §1

[6] = system: ryegrass, Italian (Italian ryegrass, Lolium multiflorum); experiment: Test A preemergence
How it was run: as §1

[7] = system: Galium (catchweed bedstraw, Galium aparine); experiment: Test A postemergence; conditions: postemergence
How it was run: as §1

Kochia (Kochia scoparia) [8] = experiment: Test A postemergence; conditions: postemergence
How it was run: as §1

[9] = system: barnyardgrass (Echinochloa crus-galli); experiment: Test A postemergence
How it was run: as §1

[10] = system: blackgrass (Alopecurus myosuroides); experiment: Test A postemergence
How it was run: as §1

corn (Zea mays) = experiment: Test A postemergence; conditions: postemergence
How it was run: as §1

[11] = system: giant foxtail (Setaria faberii); experiment: Test A postemergence; conditions: postemergence
How it was run: as §1

[12] = system: pigweed (Amaranthus retroflexus); experiment: Test A postemergence; conditions: postemergence
How it was run: as §1

[13] = system: ragweed (common ragweed, Ambrosia elatior); experiment: Test A postemergence; conditions: postemergence
How it was run: as §1

[14] = system: ryegrass, Italian (Italian ryegrass, Lolium multiflorum); experiment: Test A postemergence; conditions: postemergence
How it was run: as §1

[15] = system: wheat (Triticum aestivum); experiment: Test A postemergence; conditions: postemergence
How it was run: as §1

[16] = system: barnyardgrass (Echinochloa crus-galli); experiment: Test B flooded paddy test; conditions: Flood, 0 to 100 scale where 0 is no effect and 100 is complete control, 13 to 15 d
Procedure: (§2) Plant species in the flooded paddy test selected from rice (Oryra sativa), sedge, umbrella (small-flower umbrella sedge, Cyperus difformis), ducksalad (Heteranthera limosa), and barnyardgrass (Echinochloa crus-galli) were grown to the 2-leaf stage for testing. At time of treatment, test pots were flooded to 3 cm above the soil surface, treated by application of test compounds directly to the paddy water, and then maintained at that water depth for the duration of the test. Treated plants and controls were maintained in a greenhouse for 13 to 15 d, after which time all species were compared to controls and visually evaluated. Plant response ratings, summarized in Table B, are based on a scale of 0 to 100 where 0 is no effect and 100 is complete control. A dash (-) response means no test result.

[17] = system: ducksalad (Heteranthera limosa); experiment: Test B flooded paddy test; conditions: Flood, 0 to 100 scale where 0 is no effect and 100 is complete control, 13 to 15 d
Procedure: as §2

rice (Oryra sativa) = experiment: Test B flooded paddy test; conditions: Flood, 0 to 100 scale where 0 is no effect and 100 is complete control, 13 to 15 d
Procedure: as §2

[18] = system: sedge, umbrella (small-flower umbrella sedge, Cyperus difformis); experiment: Test B flooded paddy test; conditions: Flood, 0 to 100 scale where 0 is no effect and 100 is complete control, 13 to 15 d
Procedure: as §2

[19] = 125 g ai/ha, preemergence, 0 to 100 scale (0 no effect, 100 complete control)
[20] = Preemergence, 500 g ai/ha, 0 is no effect, 100 is complete control
[21] = 125 g ai/ha, visual injury rating on 0 to 100 scale (0 no effect, 100 complete control), approx. 10 d
[22] = 500 g ai/ha, 0 to 100 scale, 0 no effect, 100 complete control
[23] = 500 g ai/ha, postemergence, 0 to 100 scale, 0 no effect, 100 complete control
[24] = Postemergence, 125 g ai/ha, visual injury, 0 to 100 scale (0 no effect, 100 complete control), approx. 10 d
[25] = 125 g ai/ha, Preemergence, visual injury after approximately 10 d, 0 to 100 scale where 0 is no effect and 100 is complete control
[26] = 500 g ai/ha, preemergence, 0 to 100 scale, 0 = no effect, 100 = complete control
[27] = 125 g ai/ha, visual rating after approx. 10 d, 0 to 100 scale (0 no effect, 100 complete control)
[28] = 500 g ai/ha, visual injury, 0 to 100 scale (0 no effect, 100 complete control), approx. 10 d
[29] = 125 g ai/ha, postemergence, visual rating after approx. 10 d, 0 to 100 scale (0 no effect, 100 complete control)
[30] = 500 g ai/ha, postemergence, visual injury, 0 to 100 scale (0 no effect, 100 complete control), approx. 10 d

For `O=C1NCC(c2cccc(OCC(F)F)c2)C1C(=O)Nc1cccc(F)c1F` (stereo not drawn) [Compound 389], the “Plant response rating, Kochia” value (Kochia (Kochia scoparia) [1]; [19]) was 0, the “Kochia plant response rating (0 to 100 scale)” value (Kochia (Kochia scoparia) [1]; [20]) was 0 and the “Plant response rating, Barnyardgrass” value [2, 19] was 70. For the same compound, the “Barnyardgrass plant response rating (0 to 100 scale)” value [2, 20] was 70, the “Plant response rating, Foxtail, Giant” value [3, 19] was 80 and the “Foxtail, Giant plant response rating (0 to 100 scale)” value [3, 20] was 90. For the same compound, the “Plant response rating, Pigweed” value [4, 19] was 0, the “Pigweed plant response rating (0 to 100 scale)” value [4, 20] was 0 and the “Plant response rating, Ragweed” value [5, 19] was 0. The “Ragweed plant response rating (0 to 100 scale)” value [5, 20] was 0, the “Plant response rating, Ryegrass, Italian” value [6, 19] was 0 and the “Ryegrass, Italian plant response rating (0 to 100 scale)” value [6, 20] was 0. The “Galium plant response rating” value [7, 21] was 0, the “Plant response rating, Galium” value [7, 22] was 0 and the “Kochia plant response rating” value (Kochia (Kochia scoparia) [8]; [21]) was 0. The “Plant response rating, Kochia” value (Kochia (Kochia scoparia) [8]; [22]) was 0, the “Plant response rating, Barnyardgrass” value [9, 23] was 70 and the “Plant response rating, Barnyardgrass” value [9, 24] was 50. The “Plant response rating, Blackgrass” value [10, 23] was 0, the “Plant response rating, Blackgrass” value [10, 24] was 0 and the “Corn plant response rating” value (corn (Zea mays); [21]) was 30. The “Plant response rating, Corn” value (corn (Zea mays); [22]) was 50, the “Foxtail, Giant plant response rating” value [11, 21] was 60 and the “Plant response rating, Foxtail, Giant” value [11, 22] was 70. The “Pigweed plant response rating” value [12, 21] was 0, the “Plant response rating, Pigweed” value [12, 22] was 20 and the “Ragweed plant response rating” value [13, 21] was 0. For the same compound, the “Plant response rating, Ragweed” value [13, 22] was 0, the “Ryegrass, Italian plant response rating” value [14, 21] was 0 and the “Plant response rating, Ryegrass, Italian” value [14, 22] was 0. The “Wheat plant response rating” value [15, 21] was 0, the “Plant response rating, Wheat” value [15, 22] was 0 and the “Plant response rating, Barnyardgrass” value ([16]; 500 g ai/ha) was 60. For the same compound, the “Plant response rating, Ducksalad” value ([17]; 500 g ai/ha) was 100, the “Plant response rating, Rice” value (rice (Oryra sativa); 500 g ai/ha) was 15 and the “Plant response rating, Sedge, Umbrella” value ([18]; 500 g ai/ha) was 0.
In the case of `C#Cc1cccc(C2CNC(=O)C2C(=O)Nc2cccc(F)c2F)c1` (racemic) [Compound 677], the “Plant response rating, Kochia” value (Kochia (Kochia scoparia) [1]; [25]) is reported as 20, the “Plant response rating, Kochia” value (Kochia (Kochia scoparia) [1]; [26]) is reported as 40 and the “Plant response rating, Barnyardgrass” value [2, 25] is reported as 60. For the same compound, the “Plant response rating, Barnyardgrass” value [2, 26] was 90, the “Plant response rating, Foxtail, Giant” value [3, 25] was 40 and the “Plant response rating, Foxtail, Giant” value [3, 26] was 90. For the same compound, the “Plant response rating, Pigweed” value [4, 25] was 0, the “Plant response rating, Pigweed” value [4, 26] was 0 and the “Plant response rating, Ragweed” value [5, 25] was 0. For the same compound, the “Plant response rating, Ragweed” value [5, 26] was 0, the “Plant response rating, Ryegrass, Italian” value [6, 25] was 20 and the “Plant response rating, Ryegrass, Italian” value [6, 26] was 40. The “Plant response rating, Galium” value [7, 27] was 0, the “Plant response rating, Galium” value [7, 28] was 40 and the “Plant response rating, Kochia” value (Kochia (Kochia scoparia) [8]; [27]) was 0. The “Plant response rating, Kochia” value (Kochia (Kochia scoparia) [8]; [28]) was 40, the “Plant response rating, Barnyardgrass” value [9, 29] was 80 and the “Plant response rating, Barnyardgrass” value [9, 30] was 90. For the same compound, the “Plant response rating, Blackgrass” value [10, 29] was 0, the “Plant response rating, Blackgrass” value [10, 30] was 20 and the “Plant response rating, Corn” value (corn (Zea mays); [27]) was 0. The “Plant response rating, Corn” value (corn (Zea mays); [28]) was 40, the “Plant response rating, Foxtail, Giant” value [11, 27] was 20 and the “Plant response rating, Foxtail, Giant” value [11, 28] was 70. The “Plant response rating, Pigweed” value [12, 27] was 0, the “Plant response rating, Pigweed” value [12, 28] was 20 and the “Plant response rating, Ragweed” value [13, 27] was 0. For the same compound, the “Plant response rating, Ragweed” value [13, 28] was 30, the “Plant response rating, Ryegrass, Italian” value [14, 27] was 0 and the “Plant response rating, Ryegrass, Italian” value [14, 28] was 30. The “Plant response rating, Wheat” value [15, 27] was 0, the “Plant response rating, Wheat” value [15, 28] was 20 and the “Plant response rating, Barnyardgrass” value ([16]; 250 g ai/ha) was 30. The “Plant response rating, Ducksalad” value ([17]; 250 g ai/ha) was 100, the “Plant response rating, Rice” value (rice (Oryra sativa); 250 g ai/ha) was 0 and the “Plant response rating, Sedge, Umbrella” value ([18]; 250 g ai/ha) was 0.
